Values of other authors in patent US20250221938A1, “PHARMACEUTICAL COMPOSITION, METHODS FOR TREATING AND USES THEREOF” (Boehringer Ingelheim International GmbH, priority 2015, published 2025).
Counter-ions that a name gives are not always drawn.

Details: metformin on its own, in the diabetic

Compound: CN(C)C(=N)N=C(N)N [metformin, metformin hydrochloride]
- average improvement in the HbA1c value: 1.0-1.5%
